# Results: patent US20200397796A1, “METHODS OF TREATMENT OF CANCER COMPRISING CHK1 INHIBITORS” (SIERRA ONCOLOGY, INC., priority 2018, published 2020)
# Tests used:
# [1] = Plasma protein binding, ultracentrifugation, human; type: in vitro ADME; details: for Percentage Bound / Percentage Free: Human plasma
# Protocol: (§1) The PK of SRA737 have been determined in the mouse, rat, dog and monkey following oral and IV administration (Table 3). […] An acceptable terminal elimination t1/2 was also observed in each species. […] The plasma protein binding of SRA737 at 1 and 10 μM was examined in mouse, minipig, monkey and human plasma using ultracentrifugation and in dog plasma (10 μM) using rapid equilibrium dialysis.
# [2] = tested on: MOLM-13 model of AML; assay: In vivo efficacy, MOLM-13 model; design: species or system mouse; details: data not shown
# Protocol: (§2) A program of in vivo efficacy studies was performed to assess the activity of SRA737 in combination with genotoxic chemotherapy and targeted agents, and as monotherapy.
# (§3) One of these models also carried a MYCN amplification. A fourth HGSOC PDX model with partial resistance to PARPi was also sensitive to high dose SRA737 monotherapy.
# [3] = Plasma protein binding, ultracentrifugation, mouse; type: in vitro ADME; details: for Percentage Bound / Percentage Free: Mouse plasma
# Protocol: as §1
# [4] = tested on: minipig hepatocytes; assay: Stability in cryopreserved hepatocytes, minipig; type: in vitro ADME; details: 10 μM, after 4 hours of incubation
# Protocol: (§4) The formation of SRA737-related metabolites was determined in cryopreserved hepatocytes from human, mouse, rat, dog, minipig and monkey samples after incubation with SRA737 at a nominal concentration of 10 μM for up to 4 hours. […] In the human hepatocyte preparation, approximately 67% of the parent remained after 4 hours of incubation compared to 75% and 7% in the rat and minipig preparations, respectively. Eight human SRA737 metabolites were observed. All SRA737 metabolites formed by human hepatocytes were also formed by monkey hepatocytes. Six metabolites were present at equal or greater abundance in the monkey.
# [5] = tested on: cryopreserved hepatocytes; assay: Rank order of stability in cryopreserved hepatocytes across species; type: in vitro ADME, human, mouse, rat, dog, minipig and monkey; details: 10 μM, up to 4 hours
# Protocol: as §4
# [6] = tested on: SJSA-1 human osteosarcoma; assay: In vivo efficacy, SJSA-1 xenograft model; design: species or system mouse; details: data not shown
# Protocol: as §2, §3
# [7] = tested on: Calu6 human (NSCLC); assay: In vivo efficacy, Calu6 xenograft model; design: species or system mouse; details: data not shown
# Protocol: as §2, §3
# [8] = Excretion in urine and feces, rats; type: in vivo; details: rat; over 24 hours
# Protocol: (§5) The excretion of SRA737 has been studied in mice and rats administered SRA737 at either 5 mg/kg IV or 10 mg/kg orally. Urine and feces were collected for a 24-hour period after dosing. In mice, renal excretion of intact SRA737 was consistently low (less than 10% of dose) after both oral and IV administration. Following IV administration of SRA737, less than 8% of the dose was recovered as intact drug in the feces while after oral administration this figure was less than 3%. Excretion of intact SRA737 was lower in the rat than in the mouse with <1% of dose excreted renally over 24 hours and less than 1.5% of dose excreted into the feces over 24 hours.
# [9] = target: CYP 2C19 (Homo sapiens, UniProt P33261); assay: CYP inhibition, 2C19; type: in vitro ADME; details: highest concentration investigated
# Chain of CYP 2C19 (P33261 whole entry): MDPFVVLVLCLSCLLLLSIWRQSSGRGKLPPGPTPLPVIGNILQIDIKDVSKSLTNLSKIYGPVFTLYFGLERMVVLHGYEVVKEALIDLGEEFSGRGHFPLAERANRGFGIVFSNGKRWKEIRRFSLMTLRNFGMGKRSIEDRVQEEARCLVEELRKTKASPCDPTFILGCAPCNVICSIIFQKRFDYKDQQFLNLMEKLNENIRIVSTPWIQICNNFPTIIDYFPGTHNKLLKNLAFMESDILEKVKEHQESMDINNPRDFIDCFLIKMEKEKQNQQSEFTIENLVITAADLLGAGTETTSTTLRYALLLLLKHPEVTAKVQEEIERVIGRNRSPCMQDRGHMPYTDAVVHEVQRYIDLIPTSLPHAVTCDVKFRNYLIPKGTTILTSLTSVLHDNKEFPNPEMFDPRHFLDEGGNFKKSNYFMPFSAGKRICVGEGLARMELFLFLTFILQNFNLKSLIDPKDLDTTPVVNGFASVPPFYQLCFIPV
# [10] = tested on: mTmG; assay: In vivo efficacy, mTmG syngeneic mouse model; details: in combination with a PD1/PD-L1 inhibitor; data not shown
# Protocol: as §2, §3
# [11] = Plasma protein binding, ultracentrifugation, monkey; type: in vitro ADME; details: for Percentage Bound / Percentage Free: Monkey plasma
# Protocol: as §1
# [12] = Three-cycle combination toxicity study with gemcitabine and cisplatin, mouse; type: in vivo; details: mice; SRA737 with IV gemcitabine and cisplatin, intermittent schedule over 18 days
# Text: Clinical combination of SRA737 and gemcitabine in some cases therefore elicited exacerbated hematological and GI toxicities.
# [13] = tested on: MC38; assay: In vivo efficacy, MC38 syngeneic mouse model; details: in combination with a PD1/PD-L1 inhibitor; data not shown
# Protocol: as §2, §3
# [14] = tested on: CHK1 S296 autophosphorylation; assay: Gemcitabine induced CHK1 S296 autophosphorylation in HT29 tumor xenografts (western blotting); type: in vivo, mouse; details: oral, 24 hours following gemcitabine 100 mg/kg IV
# Protocol: The effect of SRA737 on Gemcitabine induced CHK1 S296 autophosphorylation was assessed as described in Walton et al. (Oncotarget. 2016 Jan. 19; 7(3): 2329-2342), herein incorporated by reference for all it teaches. Briefly, mice bearing HT29 tumor xenografts were administered (i) vehicle control or (ii) gemcitabine (100 mg/kg in saline, IV) or (iii) a combination of SRA737 (12.5, 25, 50 or 100 mg/kg in DTPW, oral) and gemcitabine (100 mg/kg) with SRA737 administered 24 hours following gemcitabine administration (n=3 per time point per treatment). […] Exposure in the tumor was greater than 10-fold higher than in plasma. The circulating plasma concentration at this 24-hour timepoint corresponded to a free drug concentration of approximately 6 nM (2 ng/mL) based on plasma protein binding in mice of 94%.
# [15] = Excretion in urine and feces, mice; type: in vivo, mouse; details: 24-hour collection
# Protocol: as §5
# [16] = GLP 28-day repeat oral dose toxicity and toxicokinetics, monkey; type: in vivo; details: for AUC(0-t) / Cmax / half-life: po, daily dosing for 28 days
# Text: Reference source not found.6.
# [17] = mouse, in vivo, po
# [18] = in combination with standard-dose gemcitabine
# [19] = in vivo, Monkey Female, 2 mg/kg/day
# [20] = in vivo, Monkey Female, 10 mg/kg/day
# [21] = in vivo, Monkey Female, 20 mg/kg/day (NOAEL)
# [22] = in vivo, Monkey Male, 2 mg/kg/day
# [23] = in vivo, Monkey Male, 10 mg/kg/day
# [24] = in vivo, Monkey Male, 20 mg/kg/day (NOAEL)
smiles,measurement,setting,value
"N#Cc1cnc(Nc2cc(NCC3CNCCO3)c(C(F)(F)F)cn2)cn1 (stereo not shown) [SRA737, 5-[[4-[[morpholin-2-yl]methylamino]-5-(trifluoromethyl)-2-pyridyl]amino]pyrazine-2-carbonitrile]",Percentage Bound,[1]; 1 μM,87.7%
same,Percentage Free,[1]; 1 μM,12.4%
same,Percentage Bound,[1]; 10 μM,87.2%
same,Percentage Free,[1]; 10 μM,12.8%
same,fraction unbound,"[1]; human, plasma, humans, summary of 1 and 10 μM",~0.13
same,single agent efficacy,[2],single agent efficacy
same,Percentage Bound,[3]; 1 μM,94.5%
same,Percentage Free,[3]; 1 μM,5.5%
same,Percentage Bound,[3]; 10 μM,93.4%
same,Percentage Free,[3]; 10 μM,6.6%
same,fraction unbound,"[3]; mouse, plasma, summary of 1 and 10 μM",0.06
same,plasma protein binding,"[3]; mouse, summary of 1 and 10 μM",~94%
same,parent remained,[4],7%
same,rank order of stability from most stable to least stable,[5],rat≈mouse>monkey≈human>>dog>>minipig
same,antitumor activity,[6]; [18],"Significant, dose-dependent antitumor activity"
same,synergy,[6]; with low-dose gemcitabine,Synergy
same,antitumor activity,[7]; [18],"Significant, dose-dependent antitumor activity"
same,synergy,[7]; with gemcitabine and carboplatin,Synergy
same,intact SRA737 excreted into the feces,[8],less than 1.5 % of dose
same,intact SRA737 excreted renally,[8],< 1 % of dose
same,IC50,[9],10 to 50 µM
same,antitumor activity,[10],Significant antitumor activity
same,Percentage Bound,[11]; 1 μM,88.8%
same,Percentage Free,[11]; 1 μM,11.2%
same,Percentage Bound,[11]; 10 μM,85.8%
same,Percentage Free,[11]; 10 μM,14.2%
same,fraction unbound,"[11]; plasma, monkey, summary of 1 and 10 μM",0.13
same,findings exacerbated by SRA737 over the cisplatin/gemcitabine control group,[12],"reversible marrow toxicity, consequent splenomegaly, and the high-dose intestinal observations"
same,antitumor activity,[13],Significant antitumor activity
same,SRA737 doses at which inhibition of pS296 Chk1 was observed,[14],greater than or equal to 12.5 mg/kg
same,dose recovered as intact drug in the feces,[15]; IV 5 mg/kg,less than 8 % of the dose
same,renal excretion of intact SRA737,[15]; after both oral (10 mg/kg) and IV (5 mg/kg),less than 10 % of dose
same,dose recovered as intact drug in the feces,[15]; oral 10 mg/kg,less than 3 % of the dose
same,AUC(0-t),[16]; [19],2580 ng·h/mL
same,Cmax,[16]; [19],519 ng/mL
same,half-life,[16]; [19],8.74 h
same,AUC(0-t),[16]; [20],12900 ng·h/mL
same,Cmax,[16]; [20],1870 ng/mL
same,half-life,[16]; [20],6.58 h
same,AUC(0-t),[16]; [21],24200 ng·h/mL
same,Cmax,[16]; [21],2320 ng/mL
same,half-life,[16]; [21],6 h
same,AUC(0-t),[16]; [22],3240 ng·h/mL
same,Cmax,[16]; [22],365 ng/mL
same,half-life,[16]; [22],6.73 h
same,AUC(0-t),[16]; [23],17900 ng·h/mL
same,Cmax,[16]; [23],2070 ng/mL
same,half-life,[16]; [23],8.34 h
same,AUC(0-t),[16]; [24],20700 ng·h/mL
same,Cmax,[16]; [24],3170 ng/mL
same,half-life,[16]; [24],6.84 h
same,NOAEL at 28 days,"[16]; in vivo, monkey, 28-day repeat oral dose, highest dose tested",20 mg/kg/day
same,NOAEL,"[16]; monkey, 28-day repeat oral dose, highest dose tested",240 mg/m^2/day
same,toxicological findings,[16]; pivotal monkey toxicity study,absence of toxicological findings
same,MTD,[17],225 mg/m^2/day
